Results: paper PMC10901950, “Neuroprotective and Anti-inflammatory Effects of Rubiscolin-6 Analogs with Proline Surrogates in Position 2” (Neurochemical Research, 2023)
Numbered stars: 1 amine (or outer) side, 2 acyl side, 3 side chain; on linkers, the order of the positions; unused ones are H or OH. Square brackets hold non-standard residues; d marks the D form. Ends that are not written are not given here. Peptide text beside a SMILES is read from it. Nip(3R) = O=C([C@@H]1CCCN([*:1])C1)[*:2]; Dmt = Cc1cc(O)cc(C)c1C[C@H](N)C(=O)O; Inp = O=C(O)C1CCNCC1

Tests used:
[1] = test system: LPS-stimulated RAW 264.7 cells; assay: Intracellular ROS formation in LPS-stimulated RAW 264.7 cells; assay type: cell-based, mouse; details: LPS-stimulated, 24 h; for decrease of ROS levels: peptides 0.1-10 µM
Description: The cytotoxic and anti-inflammatory effects of peptides on RAW 264.7 cells were estimated using MTT assay. Cells were incubated with peptides (0.1–10 µM) for 24 h to assess their cytoprotective activity. In the anti-inflammatory model, RAW 264.7 cells were exposed to LPS (Millipore Sigma, Darmstadt, Germany) at 1 µg/mL in the absence/presence of peptide at non-toxic concentrations (0.1–10 µM). Then, the MTT reagent was added to wells, and cells were incubated for 1.5 h at 37 °C. After this time, MTT was removed, 100 µL DMSO was added, and the resulting absorbance was read in a microplate reader (Synergy 2 BioTek Microplate Reader, Winooski, VT, USA) at 570 nm.
The detection of ROS generated in injured cells was evaluated using the 5(6)-carboxy-2ʹ,7ʹ-dichlorofluorescein diacetate (carboxy-H2DCFDA) reagent (Invitrogen, Bleiswijk, Netherlands). After incubation, cells were washed with ice-cold Phosphate-Buffer Saline (PBS). Then, the carboxyl-H2DCFDA (100 µL, 20 µM) reagent was added and incubated for 1 h at 37 °C. Finally, the fluorescence intensity was measured at wavelengths of […], and ROS levels were presented in percentage of control (non-treated cells).

µ-opioid receptor [2] = molecular target: T1, µ-opioid receptor (Homo sapiens, UniProt P35372); assay: Opioid receptor binding assay, [3H]DAMGO competition; parameters: purchased; host or cells: CHO cells (membranes); details: CHO cell membranes, 0.5 nM [3H]DAMGO, 25 °C, 120 min; mean ± SEM of four experiments in duplicate; read-out: Ki MOR
T1 sequence (P35372 whole entry): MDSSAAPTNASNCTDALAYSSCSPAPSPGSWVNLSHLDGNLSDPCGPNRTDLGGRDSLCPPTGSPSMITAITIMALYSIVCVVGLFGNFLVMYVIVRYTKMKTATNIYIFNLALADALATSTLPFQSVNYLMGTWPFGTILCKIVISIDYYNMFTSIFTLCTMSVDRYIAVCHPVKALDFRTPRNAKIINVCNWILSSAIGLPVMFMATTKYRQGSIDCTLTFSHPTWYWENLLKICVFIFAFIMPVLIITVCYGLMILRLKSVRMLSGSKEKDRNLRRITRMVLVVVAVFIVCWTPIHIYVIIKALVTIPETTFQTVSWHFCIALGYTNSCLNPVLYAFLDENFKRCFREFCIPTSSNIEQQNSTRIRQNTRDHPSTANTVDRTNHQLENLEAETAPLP
Description: The opioid receptor binding assays were performed using the modified method described elsewhere. Briefly, commercial membranes of Chinese Hamster Ovary (CHO) cells transfected with human opioid receptors were used. The binding affinities for µ-, δ- and κ-opioid receptors were determined by radioligand competition analysis using [^3H]DAMGO, [^3H]deltorphin-2, and [^3H]U-69593, respectively. Membranes were incubated at 25 °C for 120 min with appropriate concentrations of a tested peptide in the presence of 0.5 nM radioligand in a total volume of 0.5 mL of 50 mM Tris/HCl (pH 7.4) containing bovine serum albumin (BSA) (1 mg/mL), bacitracin (50 µg/mL), bestatin (30 µM), and captopril (10 µM). Non-specific binding was determined in the presence of 1 µM naloxone. Incubations were terminated by the rapid filtration through the GF/B Whatman (Brentford, UK) glass fibre strips (pre-soaked for 2 h in 0.5% (v/v) […]) using Millipore Sampling Manifold (Billerica, MA, USA). The filters were washed thrice with 4 mL of ice-cold Tris buffer solution. Packard Tri-Carb 2100 TR liquid scintillation counter (Ramsey, MN, USA) was used to measure the bound radioactivity after overnight extraction of the filters in 4 mL of a Perkin Elmer Ultima Gold scintillation fluid (Wellesley, MA, USA). The data were analyzed by a nonlinear least square regression analysis computer program Graph Pad PRISM 6.0 (Graph Pad Software Inc., San Diego, CA, USA). The values of the inhibitory constants (Ki) were calculated according to the equation of Cheng and Prusoff.
The ability of R-6 and its new analogs to bind to µ-, δ- and κ-opioid receptors was determined by competitive binding assays against [^3H]DAMGO, [^3H][Ile^5,6]deltorphin-2 and [^3H]U-69593, respectively, using membranes of CHO cells transfected with opioid receptors and are summarized in Table 2.

µ-opioid receptor [3] = molecular target: T1, µ-opioid receptor; assay: Calcium mobilisation assay, CHO cells with Gαqi5; assay type: cell-based; parameters: expressed in transfected cells; gift from Prof; Girolamo Calo, University of Padova; details: for µ-opioid receptors pEC50 (CL95%): agonist potency, mean ± SEM of three experiments in triplicate; for µ-opioid receptors pEC50 (CL95%) / µ-opioid receptors α ± SEM: Inactive = inactive as an agonist up to 1 µM; for µ-opioid receptors α ± SEM: intrinsic activity, Emax ratio to Dermorphin; for EC50: read-out: µ-opioid receptors pEC50 (CL95%) (converted)
Description: Chinese Hamster Ovary (CHO) cells stably co-expressing human recombinant µ- or κ-opioid receptors and the C-terminally modified Gαqi5, and CHO cells co-expressing the human recombinant δ-opioid receptors and the GαqG66Di5 chimeric protein (a generous gift from Prof. Girolamo Calo, University of Padova, Italy) were used in calcium mobilization assay, that was performed as reported in detail elsewhere. Cells were cultured in Dulbecco’s Modified Eagle’s Medium (DMEM)/Ham’s F12 (1:1) culture medium supplemented with 10% (v/v) Fetal Bovine Serum (FBS), penicillin (100 IU/mL), streptomycin (100 µg/mL), L-glutamine (2 mM), fungizone (1 µg/mL), geneticin (G418; 200 µg/mL) and hygromycin B (100 µg/mL). Cell cultures were kept at 37 °C in 5% CO2/humidified air. When confluence was reached (3–4 days), cells were seeded at a density of 50,000 cells/well into 96-well black, clear-bottom plates. After 24 h incubation, the cells were loaded with a medium supplemented with probenecid (2.5 mM), calcium-sensitive fluorescent dye Fluo-4 AM (3 µM), pluronic acid (0.01%), and HEPES (20 mM) and kept for 30 min at 37 °C. Then, the loading solution was aspirated, and 100 µL/well of assay buffer (HBSS supplemented with 20 mM HEPES, 2.5 mM probenecid, and 500 µM Brilliant Black) was added.
The tested peptides were diluted in the HBSS/HEPES (20 mM) buffer (containing 0.005% BSA) and placed into 96-well plates. The range of concentrations tested was 10 µM–1 × 10^–6 µM. After placing both plates (cell culture and compound plate) into the FlexStation II (Molecular Device, Union City, CA, USA), the online additions were carried out in a volume of 50 µL/well and the fluorescence changes were measured.
Concentration–response curves were fitted with the four-parameter logistic, nonlinear regression model: Effect=baseline+Emax- baseline/1+10^logEC50- Xn where X is the agonist concentration and n is the Hill coefficient. Ligand efficacies, expressed as the intrinsic activity (α), were calculated as the Emax ratio of the tested compound and the standard agonist.

Compound	reduction of ROS levels ([1]; peptide 0.1 µM, DCFH-DA)	Ki (µ-opioid receptor [2])	µ-opioid receptors pEC50 (CL95%) (µ-opioid receptor [3])	µ-opioid receptors α ± SEM (µ-opioid receptor [3])	decrease of ROS levels ([1]; DCFH-DA)	effect on ROS levels ([1]; peptide 0.1 µM)	EC50 (µ-opioid receptor [3])
CC(C)C[C@H](NC(=O)C1CCN(C(=O)[C@@H](N)Cc2ccc(O)cc2)CC1)C(=O)N[C@@H](CC(=O)O)C(=O)N[C@@H](CC(C)C)C(=O)N[C@@H](Cc1ccccc1)C(N)=O [analog 7, Tyr-Inp-Leu-Asp-Leu-Phe-NH2] (H-Y[Inp]LDLF-NH2)	about 50%	> 1000 nM	Inactive	Inactive	–	–	–
CC(C)C[C@H](NC(=O)[C@@H]1CCCN(C(=O)[C@@H](N)Cc2ccc(O)cc2)C1)C(=O)N[C@@H](CC(=O)O)C(=O)N[C@@H](CC(C)C)C(=O)N[C@@H](Cc1ccccc1)C(=O)O [analog 2, Tyr-(R)-Nip-Leu-Asp-Leu-Phe-OH] (H-Y[Nip(3R)]LDLF-OH)	–	> 1000 nM	Inactive	Inactive	≤ 40%	–	–
YPLDLF [R-6, rubiscolin-6]	–	> 1000 nM	Inactive	Inactive	≤ 40%	–	–
CC(C)C[C@H](NC(=O)C1CCN(C(=O)[C@@H](N)Cc2ccc(O)cc2)CC1)C(=O)N[C@@H](CC(=O)O)C(=O)N[C@@H](CC(C)C)C(=O)N[C@@H](Cc1ccccc1)C(=O)O [analog 3, Tyr-Inp-Leu-Asp-Leu-Phe-OH] (H-Y[Inp]LDLF-OH)	–	> 1000 nM	Inactive	Inactive	–	protective effect	–
Cc1cc(O)cc(C)c1C[C@H](N)C(=O)N1CCC[C@@H](C(=O)N[C@@H](CC(C)C)C(=O)N[C@@H](CC(=O)O)C(=O)N[C@@H](CC(C)C)C(=O)N[C@@H](Cc2ccccc2)C(=O)O)C1 [analog 4, Dmt-(R)-Nip-Leu-Asp-Leu-Phe-OH] (H-[Dmt][Nip(3R)]LDLF-OH)	–	> 1000 nM	Inactive	Inactive	≤ 40%	–	–
Cc1cc(O)cc(C)c1C[C@H](N)C(=O)N1CCC(C(=O)N[C@@H](CC(C)C)C(=O)N[C@@H](CC(=O)O)C(=O)N[C@@H](CC(C)C)C(=O)N[C@@H](Cc2ccccc2)C(=O)O)CC1 [analog 5, Dmt-Inp-Leu-Asp-Leu-Phe-OH] (H-[Dmt][Inp]LDLF-OH)	–	712 ± 101 nM	–	0.11 ± 0.04	–	protective effect	7590 nM
YPLDLF-NH2 [analog 6, Tyr-Pro-Leu-Asp-Leu-Phe-NH2]	–	> 1000 nM	Inactive	Inactive	–	–	–
Cc1cc(O)cc(C)c1C[C@H](N)C(=O)N1CCC[C@H]1C(=O)N[C@@H](CC(C)C)C(=O)N[C@@H](CC(=O)O)C(=O)N[C@@H](CC(C)C)C(=O)N[C@@H](Cc1ccccc1)C(=O)O [analog 1, Dmt-Pro-Leu-Asp-Leu-Phe-OH] (H-[Dmt]PLDLF-OH)	–	599 ± 84.5 nM	–	0.22 ± 0.05	≤ 40%	–	2000 nM
